From patent US7056679B2, “Target specific screening and its use for identifying target binders” (Antyra, Inc., priority 2001, dated 2006)

Key:
E-tag antibody = test: ELISA analysis of phage on antibody raised against ETAG (positive control); conditions: peptide binding to E-tag antibody; phage ELISA units read at 405 nm
Protocol: (§1) For analysis of individual target binders, colonies were picked and phage prepared as described above using helper phage, M13KO7. Ninety-six-well microtiter plates were coated with 500 ng/well of specific target protein, 500 ng/well lactate dehydrogenase (LDH) irrelevant or non-specific target, 500 ng/well of positive control antibody raised against ETAG, and negative control of non-fat milk powder-PBS 2% at 4° C. overnight. Plates were then blocked with 350 microliters/well PBS containing 2% non-fat milk for 1 hr at room temperature. One hundred microliters per well of phage from isolated clones were added and plates were incubated at room temperature for 2 hr after centrifuging samples for 20 minutes at 3500 rpm at 4° C. The phage solution was then removed, and the wells were washed three times with PBS at room temperature. Antibody raised against M13 conjugated to horseradish peroxidase (Pharmacia) was diluted 1:3000 in PBS-Tween and added to each well (100 μl/well). Incubation was for 1 hr at room temperature, followed by washing with PBS-(0.5%) Tween 3 times as described. Color was developed by addition of ABTS solution (100 μl/well; Boehringer, Indianapolis, Ind.). Plates were analyzed at 405 nm. A clone was considered “positive” if the A405 of the well was ≧2-fold over background.

[1] = tested on: lactate dehydrogenase (LDH); test: ELISA analysis of phage on LDH (irrelevant, non-specific target); assay type: binding; conditions: peptide binding to LDH polypeptide (non-specific binding); phage ELISA units read at 405 nm
Protocol: as §1

DGI-2 = biological target: T1, DGI-2 (Homo sapiens, UniProt Q15004); test: ELISA analysis of phage on DGI-2 polypeptide (specific binding); conditions: for DGI-2 (OD): binding to DGI-2 polypeptide (specific binding), phage ELISA units read at 405 nm; for DGI-2/LDH (OD): ratio of specific binding to non-specific binding
T1 construct: encompassed the entire DGI-2 open reading frame (ORF); His-tag of vector pIVEX2.3-MCS (inferred from the vector and from the reverse primer lacking a stop codon); made in house; host or cells: cell-free in vitro translation (Rapid Translation System RTS, Roche; E. coli lysate)
T1 sequence (Q15004 1-111): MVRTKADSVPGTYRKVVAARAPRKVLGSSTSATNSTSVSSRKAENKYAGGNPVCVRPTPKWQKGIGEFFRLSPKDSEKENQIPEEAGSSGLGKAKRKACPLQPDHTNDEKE
Protocol: To verify that the selected target binders bound to DGI-2, Elisa assays were performed with recombinant DGI-2. DGI-2 was subcloned and expressed using conventional methods as described below.
Protein yields were satisfactory, but most of protein was found in inclusion bodies. Next, DGI-2 was expressed using an in vitro translation system (Rapid Translation System RTS 5000, Roche Diagnostics GmbH, Mannheim Germany). For this system, the DGI-2 ORF was cloned into the pIVEX2.3-MCS vector (Roche Diagnostics) using restriction sites Nde I and Hind III, which were added to DGI-2 by PCR. […] The primers used for the PCR amplification were as follows: […]
as §1

Substance | LDH (OD) [1] | DGI-2 (OD) (DGI-2) | DGI-2/LDH (OD) (DGI-2) | ETAG (OD) (E-tag antibody)
GLYRRAGDASVGFSRWGREDCQVYFSVECLLGSSWGGYS (GLYRRAGDASVGFSRWGRFDCQVYFSVECLLGSSWGGYS; DGI-2-40F-4-F12; listed as Escherichia coli) | 0.9 OD | 2.2 OD | 2.5 | 8.7 OD
RWSICRGLQYSIPGCAVEDLSDVMA (DGI-2-20C-4-H316; listed as Escherichia coli) | 1.0 OD | 3.8 OD | 3.9 | 7.2 OD
YTPASILTGFQRGYEGAGNG (DGI-2-20R-4-G7; listed as Escherichia coli) | 1.2 OD | 4.7 OD | 3.9 | 11.6 OD
VGQSSGDARPLANLFVFPFV (DGI-2-20F-PP-F12; listed as Escherichia coli) | 0.9 OD | 2.1 OD | 2.3 | 47.6 OD
VHSQGRMWAIPGLRGGTGAS (DGI-2-20R-3-D7; listed as Escherichia coli) | 1.0 OD | 5.2 OD | 5.3 | 18.7 OD
GRWDGWEVCGIWGADDCASG (DGI-2-20R-4-H1; listed as Escherichia coli) | 1.2 OD | 9.3 OD | 7.8 | 14.0 OD
SYRNFAMQSSLQVRRGSVVEDGTCWWEGVRCYSG (DGI-2-40F-4-F6; listed as Escherichia coli) | 1.0 OD | 3.2 OD | 3.2 | 13.5 OD
RGSLLLTLPRLSGAVGTAYG (DGI-2-20F-PP-B3; listed as Escherichia coli) | 1.1 OD | 3.4 OD | 3.0 | 11.7 OD
SWRLWVSGELQGDRRKGLRG (DGI-2-20R-3-B7; listed as Escherichia coli) | 1.0 OD | 3.1 OD | 3.0 | 11.7 OD
DYKTCVSQHVHPLFGEYFYHKVTHMSILSPTFRVTSLYG.K (DYKTCVSQHVHPLFGEYFYHKVTHMSILSPTFRVTSLYGK; DGI-2-40F-3-B95; listed as Escherichia coli) | 0.8 OD | 1.0 OD | 1.2 | 5.4 OD
DYKGRTMTSPIMSALPVYDRLHGIGSRGQNMD (DYKGRTMTSPIMSALPVYDRLHGAIGSRGQNMD; DGI-2-20C-3-B3; listed as Escherichia coli) | 0.9 OD | 0.8 OD | 0.9 | 7.7 OD
GWGCSVPGILCVGGHRQGGG (DGI-2-20R-3-B11; listed as Escherichia coli) | 1.0 OD | 5.9 OD | 5.7 | 16.9 OD
CRNFGVIWGAGWVSPGCEDJ (CRNFGVIWGAGWVSPGCEDI; not fully specified; non-natural residue J; DGI-2-20F-3-A1; listed as Escherichia coli) [DGI-2-20E-3-A1] | 1.0 OD | 2.8 OD | 3.0 | 14.3 OD
VSFAHDWGRWWYQWEVG (DGI-2-20R-4-G22; listed as Escherichia coli) | 1.2 OD | 7.9 OD | 6.5 | 12.9 OD
RTLFINGGCCGKGSGGGRPL (DGI-2-20F-PP-G1; listed as Escherichia coli) | 1.0 OD | 1.4 OD | 1.4 | 21.8 OD
LTPYSLARSWLSGRPSTGAT (DGI-2-20F-3-C12; listed as Escherichia coli) | 1.0 OD | 3.2 OD | 3.1 | 15.1 OD
DVGAVVRSGHCASRPGE*QVR (DVGAVVRSGHCASRPGEQVR; DGI-2-20F-PP-H9; listed as Escherichia coli) | 1.1 OD | 1.6 OD | 1.5 | 13.6 OD
VLQRSLWKDWVDGVMHGGGSRGV (DGI-2-20R-3-A7; listed as Escherichia coli) | 0.9 OD | 4.8 OD | 5.1 | 13.9 OD
MGQGFHYNRQPYMSHQCYAFTFSTPFLDGDRIPHGVSRGL (DGI-2-40F-3-D1; listed as Escherichia coli) | 0.8 OD | 0.8 OD | 1.0 | 4.1 OD
LFRFSGTGMASLPCVGWHLV (DGI-2-20F-PP-B6; listed as Escherichia coli) | 1.0 OD | 2.5 OD | 2.6 | 37.0 OD
LWLPCGLLVRPAQFYFYFSPLRHFLSSSVGSLSFPLSLLV (DGI-2-40F-3-B4; listed as Escherichia coli) | 0.8 OD | 1.0 OD | 1.1 | 1.5 OD

Further lines, with some results ahead:

LDH (OD) [1] | DGI-2 (OD) (DGI-2) | DGI-2/LDH (OD) (DGI-2) | Substance | ETAG (OD) (E-tag antibody)
0.8 OD | 4.7 OD | 5.7 | RSQVRVVSRERSTPVLIHIRIECLLFSGWCVTSGSDEGVVWG [DGI-2-40F-4-F122] | 8.1 OD
1.0 OD | 5.3 OD | 5.1 | LGRTFVWGTCLHLSVSRFGH (DGI-2-20F-PP-C3; listed as Escherichia coli) | 39.9 OD
1.0 OD | 7.0 OD | 7.0 | VLGADAGMIWFMDGCGIRCR (DGI-2-20R-4-E6; listed as Escherichia coli) | 19.1 OD
1.0 OD | 4.7 OD | 4.7 | RPVVCLAGLTLAQFGWVFPGWRGWS (DGI-2-20C-3-C1039; listed as Escherichia coli) | 11.8 OD
1.0 OD | 2.4 OD | 2.4 | RRFVRCSVPVALRSAVPVSV (DGI-2-20F-PP-A10; listed as Escherichia coli) | 16.3 OD
0.8 OD | 1.0 OD | 1.3 | GLLFTSSPYQCFWVHCTLTMSPLSVLGDLSSTIGRMRASR (DGI-2-40F-3-C52; listed as Escherichia coli) | 4.6 OD
0.7 OD | 0.8 OD | 1.2 | HGTRLRGVDYVMTWAGWQGYSSRKHVQQAVAGSSPGSDEL (DGI-2-40F-3-B1; listed as Escherichia coli) | 6.3 OD
1.0 OD | 8.3 OD | 8.3 | WEVGQVEKFSRGVGGWWPTG [DGI-2-20R-3-D3] | 16.8 OD
0.9 OD | 2.3 OD | 2.5 | GGSLPVKSGQLVTCCTSKGG (DGI-2-20F-PP-F5; listed as Escherichia coli) | 16.3 OD
